Test results taken from ChEMBL document CHEMBL1201862, “PubChem BioAssay data set” (2004).
Each block holds one compound with its values, some of them ahead of it. The source made the active and inactive calls.

Tests used:
[1] = molecular target: T1, Calpain-2 catalytic subunit (Sus scrofa, UniProt P43367); experiment: pig calpain II inhibitor potency, dose response, biochemical, fluorogenic peptide substrate (AID 1420); assay type: functional
T1 sequence (P43367 whole entry): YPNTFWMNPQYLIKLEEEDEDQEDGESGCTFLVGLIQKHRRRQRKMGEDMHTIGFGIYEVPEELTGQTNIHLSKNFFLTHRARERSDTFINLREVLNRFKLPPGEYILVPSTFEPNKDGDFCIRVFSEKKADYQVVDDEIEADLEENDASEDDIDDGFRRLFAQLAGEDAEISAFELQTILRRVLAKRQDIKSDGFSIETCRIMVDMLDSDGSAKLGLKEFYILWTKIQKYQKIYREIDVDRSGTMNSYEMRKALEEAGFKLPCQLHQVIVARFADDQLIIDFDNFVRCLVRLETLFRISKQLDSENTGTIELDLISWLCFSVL

Aminopeptidase N = molecular target: T2, Aminopeptidase N (Plasmodium falciparum FcB1/Columbia, UniProt O96935); experiment: P. falciparum M1AAP inhibitors, biochemical, fluorogenic H-Leu-NHMec substrate, 1536-well (AID 1445); design: species or system Plasmodium falciparum 3D7, 3D7
T2 sequence (O96935 whole entry): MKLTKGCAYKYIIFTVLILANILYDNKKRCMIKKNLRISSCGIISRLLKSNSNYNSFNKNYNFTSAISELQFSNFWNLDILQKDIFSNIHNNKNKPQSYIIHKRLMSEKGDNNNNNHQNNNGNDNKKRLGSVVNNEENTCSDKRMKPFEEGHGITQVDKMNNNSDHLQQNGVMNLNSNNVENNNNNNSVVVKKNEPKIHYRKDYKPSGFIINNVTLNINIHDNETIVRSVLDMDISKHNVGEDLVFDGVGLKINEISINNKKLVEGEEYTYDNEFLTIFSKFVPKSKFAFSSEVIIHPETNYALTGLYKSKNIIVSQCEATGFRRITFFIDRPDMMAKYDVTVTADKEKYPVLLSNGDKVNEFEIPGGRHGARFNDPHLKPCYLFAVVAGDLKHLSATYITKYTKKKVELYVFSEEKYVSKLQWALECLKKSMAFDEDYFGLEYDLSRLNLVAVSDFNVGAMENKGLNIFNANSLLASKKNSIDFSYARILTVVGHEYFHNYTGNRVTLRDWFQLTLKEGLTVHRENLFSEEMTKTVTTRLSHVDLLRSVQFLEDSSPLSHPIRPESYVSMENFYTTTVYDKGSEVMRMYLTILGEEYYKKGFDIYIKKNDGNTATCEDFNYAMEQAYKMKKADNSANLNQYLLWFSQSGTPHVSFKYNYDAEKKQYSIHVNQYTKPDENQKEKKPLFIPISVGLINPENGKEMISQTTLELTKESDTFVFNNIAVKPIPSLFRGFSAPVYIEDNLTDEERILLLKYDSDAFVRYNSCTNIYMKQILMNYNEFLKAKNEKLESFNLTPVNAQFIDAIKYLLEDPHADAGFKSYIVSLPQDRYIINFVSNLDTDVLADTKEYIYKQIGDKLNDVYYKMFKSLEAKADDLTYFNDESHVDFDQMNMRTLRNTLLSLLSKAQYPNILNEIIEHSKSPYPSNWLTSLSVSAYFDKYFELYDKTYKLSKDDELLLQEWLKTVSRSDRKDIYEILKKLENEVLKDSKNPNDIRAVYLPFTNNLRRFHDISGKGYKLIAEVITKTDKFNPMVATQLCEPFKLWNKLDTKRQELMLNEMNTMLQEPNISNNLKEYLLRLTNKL

[2] = inhibitors of Vif binding to APOBEC3G peptide, primary screen, biochemical, TR-FRET, GST-Vif 1-94, biotin-A3G peptide, dose response retest (AID 1117319); assay type: functional;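 also: TR-FRET signal of purified GST-Vif binding a biotinylated A3G peptide; inhibitors lower the FRET signal by blocking Vif and A3G binding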
[3] = molecular target: 26S proteasome non-ATPase regulatory subunit 14 (Homo sapiens, UniProt O00487); experiment: inhibition of proteasome subunit RPN11 – biochemical, fluorescence polarization, uHTS hits, confirmation (AID 602368); assay type: functional
[4] = molecular target: 72 kDa type IV collagenase (Homo sapiens, UniProt P08253); experiment: Dose Response validation of uHTS RPN11 inhibitor hits using a MMP-2 Fluorescence assay.; assay type: functional
Prothrombin = Prothrombin (Bos taurus, UniProt P00735); experiment: thrombin inhibition, dose response, biochemical, fluorescence polarization, uHTS hits (AID 602369); assay type: functional
[5] = inhibitors of intracellular T. cruzi replication, confirmation, NIH3T3 host cells, beta-gal luminescence (AID 2044); assay type: functional, cell-based;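 also: intracellular parasites grown in NIH/3T3 mouse fibroblasts as host cells; luminescent beta-galactosidase reporter signal from transgenic T. cruzi replicating inside host cells; inhibitors lower the luminescence signal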
[6] = cytotoxicity toward NIH3T3 fibroblasts, dose response, counter-screen, cell-based, ATP luminescence, mouse fibroblasts (AID 2010); assay type: functional;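 also: cells exposed to compound for about 90 hours before reading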
[7] = molecular target: T3, Histone-lysine N-methyltransferase NSD2 (Homo sapiens, UniProt O96028); assay type: biochemical
T3 sequence (O96028 whole entry): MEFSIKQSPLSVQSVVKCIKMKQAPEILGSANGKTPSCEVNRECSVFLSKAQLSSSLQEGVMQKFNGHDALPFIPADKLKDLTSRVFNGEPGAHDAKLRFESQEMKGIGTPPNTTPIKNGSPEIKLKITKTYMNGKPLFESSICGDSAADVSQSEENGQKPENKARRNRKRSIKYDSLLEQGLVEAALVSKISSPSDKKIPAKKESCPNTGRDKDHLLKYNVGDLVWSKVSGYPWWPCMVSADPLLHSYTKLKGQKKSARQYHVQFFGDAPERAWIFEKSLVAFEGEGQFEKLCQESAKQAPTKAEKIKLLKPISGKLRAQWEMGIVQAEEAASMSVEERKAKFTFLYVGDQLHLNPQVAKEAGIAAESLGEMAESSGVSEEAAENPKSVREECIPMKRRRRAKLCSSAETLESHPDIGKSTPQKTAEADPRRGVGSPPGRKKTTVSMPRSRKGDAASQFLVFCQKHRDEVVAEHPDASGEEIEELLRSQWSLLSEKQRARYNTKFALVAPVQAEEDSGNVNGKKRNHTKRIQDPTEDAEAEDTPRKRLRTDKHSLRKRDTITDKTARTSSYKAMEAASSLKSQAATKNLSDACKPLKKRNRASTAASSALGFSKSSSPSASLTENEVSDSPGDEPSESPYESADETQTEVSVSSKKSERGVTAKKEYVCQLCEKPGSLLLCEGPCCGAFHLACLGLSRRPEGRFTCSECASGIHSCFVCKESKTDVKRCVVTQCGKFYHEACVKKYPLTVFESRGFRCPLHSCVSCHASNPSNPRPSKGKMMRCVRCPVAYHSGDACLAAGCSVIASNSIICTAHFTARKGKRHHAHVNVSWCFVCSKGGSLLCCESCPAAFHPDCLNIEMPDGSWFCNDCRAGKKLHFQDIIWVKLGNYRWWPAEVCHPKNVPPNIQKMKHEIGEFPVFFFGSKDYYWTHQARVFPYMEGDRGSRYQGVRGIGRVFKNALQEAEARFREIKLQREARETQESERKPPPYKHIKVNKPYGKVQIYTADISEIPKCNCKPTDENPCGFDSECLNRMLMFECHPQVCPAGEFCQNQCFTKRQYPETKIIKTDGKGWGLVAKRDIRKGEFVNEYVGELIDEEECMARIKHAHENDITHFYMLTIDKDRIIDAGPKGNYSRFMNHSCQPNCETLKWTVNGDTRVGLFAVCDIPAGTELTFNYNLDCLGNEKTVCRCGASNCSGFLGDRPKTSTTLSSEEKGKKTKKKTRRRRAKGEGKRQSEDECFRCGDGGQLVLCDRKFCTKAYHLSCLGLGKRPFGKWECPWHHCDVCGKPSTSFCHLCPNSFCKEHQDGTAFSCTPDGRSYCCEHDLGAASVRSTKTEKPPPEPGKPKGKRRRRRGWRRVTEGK

Cytochrome P450 2C9 = Cytochrome P450 2C9 (Homo sapiens, UniProt P11712)
Cytochrome P450 2C9, sequence (P11712 whole entry): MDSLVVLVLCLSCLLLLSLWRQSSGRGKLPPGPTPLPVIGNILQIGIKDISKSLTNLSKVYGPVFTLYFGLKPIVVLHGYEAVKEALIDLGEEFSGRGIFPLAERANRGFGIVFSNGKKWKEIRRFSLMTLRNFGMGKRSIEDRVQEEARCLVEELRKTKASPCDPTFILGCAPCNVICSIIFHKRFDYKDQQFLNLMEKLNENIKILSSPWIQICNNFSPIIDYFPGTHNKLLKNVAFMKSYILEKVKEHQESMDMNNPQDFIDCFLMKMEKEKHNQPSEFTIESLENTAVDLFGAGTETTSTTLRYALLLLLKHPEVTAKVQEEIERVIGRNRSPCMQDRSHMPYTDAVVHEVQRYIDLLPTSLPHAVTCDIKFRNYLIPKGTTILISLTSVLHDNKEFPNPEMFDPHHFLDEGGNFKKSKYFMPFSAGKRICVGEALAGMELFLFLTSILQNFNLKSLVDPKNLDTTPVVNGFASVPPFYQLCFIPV

26S proteasome non-ATPase regulatory subunit 14, sequence (O00487 whole entry): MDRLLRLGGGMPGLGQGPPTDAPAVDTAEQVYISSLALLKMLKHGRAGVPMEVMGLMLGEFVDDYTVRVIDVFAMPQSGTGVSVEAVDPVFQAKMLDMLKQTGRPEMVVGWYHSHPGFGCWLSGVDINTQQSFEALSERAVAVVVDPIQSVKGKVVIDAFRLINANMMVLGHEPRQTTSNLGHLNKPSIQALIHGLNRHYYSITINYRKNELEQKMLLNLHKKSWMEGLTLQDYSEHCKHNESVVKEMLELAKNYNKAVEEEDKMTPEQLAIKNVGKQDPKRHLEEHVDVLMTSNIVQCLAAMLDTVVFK
72 kDa type IV collagenase, sequence (P08253 whole entry): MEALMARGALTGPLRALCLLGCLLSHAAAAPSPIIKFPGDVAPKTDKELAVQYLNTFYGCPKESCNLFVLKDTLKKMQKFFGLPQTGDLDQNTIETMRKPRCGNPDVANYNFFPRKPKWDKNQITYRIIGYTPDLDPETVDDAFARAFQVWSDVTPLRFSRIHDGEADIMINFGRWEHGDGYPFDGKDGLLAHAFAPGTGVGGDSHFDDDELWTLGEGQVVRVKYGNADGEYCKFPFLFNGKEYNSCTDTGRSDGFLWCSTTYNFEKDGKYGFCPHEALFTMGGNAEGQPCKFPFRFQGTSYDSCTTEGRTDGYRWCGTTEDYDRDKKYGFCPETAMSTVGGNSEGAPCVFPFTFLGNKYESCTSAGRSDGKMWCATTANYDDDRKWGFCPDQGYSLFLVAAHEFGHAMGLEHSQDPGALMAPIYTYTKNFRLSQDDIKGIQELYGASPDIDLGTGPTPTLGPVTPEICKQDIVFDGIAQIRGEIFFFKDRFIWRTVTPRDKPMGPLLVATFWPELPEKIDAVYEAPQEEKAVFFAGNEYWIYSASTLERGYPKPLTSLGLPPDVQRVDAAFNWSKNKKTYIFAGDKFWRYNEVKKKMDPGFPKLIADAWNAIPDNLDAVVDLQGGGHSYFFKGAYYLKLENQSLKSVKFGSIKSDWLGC

IC50 [1]: 2.34 µM (not active)
SMILES: CCOC(=O)CSc1nc(C(C)C)nc2sc(C)c(C)c12

IC50 [1]: 6.79 µM (not active)
SMILES: Cc1ccc(SCC(=O)c2c(C)nc3cc(C)ccn23)cc1

IC50 (Aminopeptidase N): 23.2 µM (active) | IC50 [2]: > 100 µM (active)
SMILES: O=C(CN1CCC(NC(=O)c2cccc(F)c2)CC1)NCc1ccccc1F

IC50 [3]: 17.6 µM (active) | IC50 [4]: > 100 µM (inactive) | IC50 (Prothrombin): 50 µM (active)
SMILES: COCCNC(=O)c1c(NC(=O)c2nc(SC)ncc2Cl)sc2c1CCCC2

IC50 [2]: > 100 µM (active)
SMILES: O=S(=O)(Nc1ccc2c(c1)nc1n2CCN(Cc2ccccc2)C1)c1ccc(Cl)cc1

IC50 [2]: > 100 µM (active)
SMILES: COc1cccc(CN2CCNC(=O)C2CC(=O)NCCn2nc(C)cc2C)c1OC (configuration not stated)

IC50 [3]: 30.6 µM (active) | IC50 [4]: > 100 µM (inactive) | IC50 (Prothrombin): 24 µM (active)
SMILES: O=C(CSc1nc2ccccc2o1)Nc1nc2c(s1)CCCC2

SMILES: CNCCCOc1cccc(Oc2ccccc2)c1
EC50 [5]: 1.29 µM (active) | EC50 [6]: > 30 µM (not active) | AC50 [7]: > 20 µM (inactive)

IC50 [2]: > 100 µM (active) | AC50 (Cytochrome P450 2C9): 1.78 µM (inconclusive)
SMILES: Cc1ccc[n+](CC(=O)c2cc3ccccc3oc2=O)c1
